In patent publication US4971963A, “Cephem compounds, and use” (Takeda Chemical Industries, Ltd., priority 1988, dated 1990):
In brackets after ≈: the same amount, converted by molar mass. Like-named read-outs stand apart in the source and are kept apart here.

Experiments:
Test in all cases: Minimal inhibitory concentration, agar dilution method
Type in all cases: cell-based
S. aureus 1840 = system: S. aureus 1840
Method: (§1) The Minimal Inhibitory Concentrations of the tested compounds were determined according to the agar dilution method. Namely, 1.0 ml each of aqueous solution of the test compounds diluted by serial dilutions was poured into test petri dishes, subsequently 9.0 ml each of Trypticase soy agar was poured into the dishes and mixed.
(§2) On each of the mixed agar plates, one loopful of bacterial suspension (about 10^8 CFU/ml) of test microorganism was streaked.
(§3) After the incubation at 37° C. for 18 hours, the lowest concentration of the tested compounds in the medium which caused apparently complete inhibition of growth of the test microorganism was taken to be minimal inhibitory concentration.

E. coli O-111 = details: Escherichia coli, O111, Trypticase soy agar, about 10^8 CFU/ml, 37° C., 18 hours
Method: as §1, §2, §3

S. aureus N-241 = details: Staphylococcus aureus, N241, Trypticase soy agar, about 10^8 CFU/ml, 37° C., 18 hours
Method: as §1, §2, §3

E. coli T 7 = details: Escherichia coli, T7, Trypticase soy agar, about 10^8 CFU/ml, 37° C., 18 hours
Method: as §1, §2, §3

S. marcescens IFO12648 = details: Serratia marcescens, Trypticase soy agar, about 10^8 CFU/ml, 37° C., 18 hours
Method: as §1, §2, §3

K. pneumoniae DT = details: Klebsiella pneumoniae, Trypticase soy agar, about 10^8 CFU/ml, 37° C., 18 hours
Method: as §1, §2, §3

P. mirabilis IFO3849 = details: Proteus mirabilis, Trypticase soy agar, about 10^8 CFU/ml, 37° C., 18 hours
Method: as §1, §2, §3

E. coli NIHJ JC-2 = details: Escherichia coli, NIHJJC2, Trypticase soy agar, about 10^8 CFU/ml, 37° C., 18 hours
Method: as §1, §2, §3

E. cloacae IFO12937 = details: Enterobacter cloacae, Trypticase soy agar, about 10^8 CFU/ml, 37° C., 18 hours
Method: as §1, §2, §3

P. aeruginosa IFO3455 = details: Pseudomonas aeruginosa, Trypticase soy agar, about 10^8 CFU/ml, 37° C., 18 hours
Method: as §1, §2, §3

C. freundii IFO12681 = details: Citrobacter freundii, Trypticase soy agar, about 10^8 CFU/ml, 37° C., 18 hours
Method: as §1, §2, §3

M. morganii IFO3168 = details: Morganella morganii, Trypticase soy agar, about 10^8 CFU/ml, 37° C., 18 hours
Method: as §1, §2, §3

P. vulgaris IFO3988 = details: Proteus vulgaris, Trypticase soy agar, about 10^8 CFU/ml, 37° C., 18 hours
Method: as §1, §2, §3

S. aureus FDA 209P = details: Staphylococcus aureus, FDA209P
Method: as §1, §2, §3

S. aureus 308 A-1 = details: Staphylococcus aureus, 308A1, Trypticase soy agar, about 10^8 CFU/ml, 37° C., 18 hours
Method: as §1, §2, §3

S. aureus J-108 = details: Staphylococcus aureus, J108, Trypticase soy agar, about 10^8 CFU/ml, 37° C., 18 hours
Method: as §1, §2, §3

[1] = Staphylococcus aureus, S. aureus 1840, Trypticase soy agar, about 10^8 CFU/ml, 37° C., 18 hours, read-out: MIC
[2] = S. aureus FDA 209P, Trypticase soy agar, about 10^8 CFU/ml, 37° C., 18 hours, read-out: MIC

Compound | MIC (S. aureus 1840; [1]) [µg/mL] | MIC (E. coli O-111) [µg/mL] | MIC (S. aureus N-241) [µg/mL] | MIC (E. coli T 7) [µg/mL] | MIC (S. marcescens IFO12648) [µg/mL] | MIC (K. pneumoniae DT) [µg/mL] | MIC (P. mirabilis IFO3849) [µg/mL] | MIC (E. coli NIHJ JC-2) [µg/mL] | MIC (E. cloacae IFO12937) [µg/mL] | MIC (P. aeruginosa IFO3455) [µg/mL] | MIC (C. freundii IFO12681) [µg/mL] | MIC (M. morganii IFO3168) [µg/mL] | MIC (P. vulgaris IFO3988) [µg/mL] | MIC (S. aureus FDA 209P; 18 h) [µg/mL] | MIC (S. aureus 308 A-1) [µg/mL] | MIC (S. aureus J-108) [µg/mL] | MIC (S. aureus 1840; Staphylococcus aureus, 1840, 18 h) [µg/mL] | MIC (S. aureus FDA 209P; [2]) [µg/mL]
CO/N=C(\C(=O)N[C@@H]1C(=O)N2C(C(=O)O)=C(CSc3nnnn3CCCNC(=N)N)CS[C@H]12)c1csc(N)n1 [Example 8, 7β-[2-(2-Aminothiazol-4-yl)-(Z)-2-methoxyiminoacetamido]-3-[[1-(3-guanidinopropyl)-1H-tetrazol-5-yl]thiomethyl]-3-cephem-4-carboxylic acid] | 0.78 (≈ 1.31 µM) | ≤ 0.1 | 12.5 (≈ 20.9 µM) | 0.39 (≈ 0.654 µM) | ≤ 0.1 | ≤ 0.1 | 0.39 (≈ 0.654 µM) | ≤ 0.1 | 0.39 (≈ 0.654 µM) | 6.25 (≈ 10.5 µM) | ≤ 0.1 | ≤ 0.1 | ≤ 0.1 | 0.78 (≈ 1.31 µM) | 0.78 (≈ 1.31 µM) | 6.25 (≈ 10.5 µM) |  | 
CO/N=C(\C(=O)N[C@@H]1C(=O)N2C(C(=O)O)=C(CSc3snc(SCC(=N)N)c3C#N)CS[C@H]12)c1csc(N)n1 [Example 15, 3-[(3-Amidinomethylthio-4-cyanoisothiazol-5-yl)thiomethyl]-7β-[2-(2-aminothiazol-4-yl)-(Z)-2-methoxyiminoacetamido]-3-cephem-4-carboxylic acid] |  | ≤ 0.1 | 6.25 (≈ 9.99 µM) | 0.39 (≈ 0.623 µM) | 0.39 (≈ 0.623 µM) | 0.2 (≈ 0.32 µM) | 0.78 (≈ 1.25 µM) | 0.39 (≈ 0.623 µM) | 0.78 (≈ 1.25 µM) | 6.25 (≈ 9.99 µM) | 0.2 (≈ 0.32 µM) | 0.2 (≈ 0.32 µM) | 0.2 (≈ 0.32 µM) |  | 0.2 (≈ 0.32 µM) | 6.25 (≈ 9.99 µM) | 0.39 (≈ 0.623 µM) | 0.2 (≈ 0.32 µM)
N=C(N)CSc1nnc(SCC2=C(C(=O)O)N3C(=O)[C@@H](NC(=O)/C(=N\O)c4csc(N)n4)[C@H]3SC2)s1 [Example 39, 3-[(2-Amidinomethylthio-1,3,4-thiadiazol-5-yl)thiomethyl]-7β-[2-(2-aminothiazol-4-yl)-(Z)-2-hydroxyiminoacetamido]-3-cephem-4-carboxylic acid] | 0.39 (≈ 0.664 µM) | ≤ 0.1 | 1.56 (≈ 2.65 µM) | 1.56 (≈ 2.65 µM) | 0.78 (≈ 1.33 µM) | ≤ 0.1 | 1.56 (≈ 2.65 µM) | 0.39 (≈ 0.664 µM) | 3.13 (≈ 5.33 µM) | 12.5 (≈ 21.3 µM) | 0.39 (≈ 0.664 µM) | 0.39 (≈ 0.664 µM) | 0.78 (≈ 1.33 µM) |  | 0.2 (≈ 0.34 µM) | 1.56 (≈ 2.65 µM) |  | 0.2 (≈ 0.34 µM)
N#Cc1c(SCC(=N)N)nsc1SCC1=C(C(=O)O)N2C(=O)[C@@H](NC(=O)/C(=N\O)c3csc(N)n3)[C@H]2SC1 [Example 42, 3-[(3-Amidinomethylthio-4-cyanoisothiazol-5-yl)thiomethyl]-7β-[2-(2-aminothiazol-4-yl)-(Z)-2-hydroxyiminoacetamido]-3-cephem-4-carboxylic acid] | 0.2 (≈ 0.327 µM) | ≤ 0.1 | 0.78 (≈ 1.28 µM) | 1.56 (≈ 2.55 µM) | 1.56 (≈ 2.55 µM) | 0.78 (≈ 1.28 µM) | 3.13 (≈ 5.12 µM) | 0.78 (≈ 1.28 µM) | 3.13 (≈ 5.12 µM) | 12.5 (≈ 20.4 µM) | 0.78 (≈ 1.28 µM) | 0.78 (≈ 1.28 µM) | 0.78 (≈ 1.28 µM) |  | ≤ 0.1 | 0.78 (≈ 1.28 µM) |  | ≤ 0.1
N=C(N)CSCCn1nnnc1SCC1=C(C(=O)O)N2C(=O)[C@@H](NC(=O)/C(=N\O)c3csc(N)n3)[C@H]2SC1 [Example 44] | 0.2 (≈ 0.333 µM) | ≤ 0.1 | 3.13 (≈ 5.22 µM) | 0.78 (≈ 1.3 µM) | 0.39 (≈ 0.65 µM) | 0.2 (≈ 0.333 µM) | 3.13 (≈ 5.22 µM) | 0.2 (≈ 0.333 µM) | 3.13 (≈ 5.22 µM) | 12.5 (≈ 20.8 µM) | 0.39 (≈ 0.65 µM) | 0.39 (≈ 0.65 µM) | 0.39 (≈ 0.65 µM) |  | ≤ 0.1 | 3.13 (≈ 5.22 µM) |  | ≤ 0.1
